target: T1, PTP-1B (Homo sapiens, UniProt P18031); test: pNPP tyrosine phosphatase inhibition assay, PTP-1B; format: biochemical; details: pNPP assay, PTP-1B; read-out: Activity Class (IC50 ranges)
T1 construct: PTP-1B (purified, 1 mg/mL) as a 1:250 dilution
T1 sequence (P18031 1-321 limits assumed): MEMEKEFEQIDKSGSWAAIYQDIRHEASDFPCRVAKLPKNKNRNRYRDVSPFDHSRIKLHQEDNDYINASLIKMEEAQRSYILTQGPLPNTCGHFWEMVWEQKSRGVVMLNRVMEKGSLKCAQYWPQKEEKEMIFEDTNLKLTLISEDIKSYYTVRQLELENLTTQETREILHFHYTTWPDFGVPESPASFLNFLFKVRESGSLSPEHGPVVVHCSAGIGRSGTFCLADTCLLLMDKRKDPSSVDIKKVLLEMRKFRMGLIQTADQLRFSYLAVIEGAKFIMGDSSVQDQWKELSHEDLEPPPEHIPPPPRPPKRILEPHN
Procedure, shortened: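 Test compounds were screened at two final levels, 31.3 and 10 µM, against 4 µg/mL purified PTP-1B. The substrate was 10 mM p-nitrophenyl phosphate, with incubation for 10 min at 30°C before a K2CO3 quench. Activity was taken from A405.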

Q: Which IC50 does the source give for `O=C(O)c1ccc(CN(Cc2ccc(C(=O)O)cc2Br)S(=O)(=O)c2ccccc2)cc1` [Compound 80, 4-([Benzenesulfonyl-(2-bromo-4-carboxybenzyl)-amino]-methyl)-benzoic acid] here?
A: The IC50 was > 25000 nM.

Q: Which IC50 does the source give for `COc1ccccc1S(=O)(=O)N(Cc1ccc(-c2cccc(C(N)=O)c2)cc1)Cc1ccc(C(F)(F)P(=O)(O)O)c(Cl)c1` [Compound 161, [(4-{[(3′-Carbamoyl-biphenyl-4-ylmethyl)-(2-methoxy-benzenesulfonyl)-amino]-methyl}-2-chloro-phenyl)-difluoro-methyl]-phosphonic acid] here?
A: Its IC50 is 100 to 249 nM.

Q: `O=P(O)(O)C(F)(F)c1ccc(CN(Cc2ccc(C(F)(F)P(=O)(O)O)cc2)S(=O)(=O)c2cccc(Cl)c2)cc1` [Compound 76, {[4-({(3-Chloro-benzenesulfonyl)-[4-(difluoro-phosphono-methyl)-benzyl]-amino}-methyl)-phenyl]-difluoro-methyl}-phosphonic acid] was tested. Which IC50 did it give?
A: Its IC50 is 250 to 499 nM.

Q: `COc1ccccc1S(=O)(=O)N(Cc1ccc(-c2cccc(-c3nn[nH]n3)c2)cc1)Cc1ccc(C(F)(F)P(=O)(O)O)c(Cl)c1` [Compound 47, {[2-Chloro-4-({(2-methoxy-benzenesulfonyl)-[3′-(2H-tetrazol-5-yl)-biphenyl-4-ylmethyl]-amino}-methyl)-phenyl]-difluoro-methyl}-phosphonic acid] was tested. Which IC50 did it give?
A: Its IC50 is < 99 nM.

Q: `COc1ccccc1S(=O)(=O)N(Cc1ccc(C(F)(F)P(=O)(O)O)c(Cl)c1)Cc1ccccc1Oc1ccccc1` [Compound 173, [(2-Chloro-4-{[(2-methoxy-benzenesulfonyl)-(2-phenoxy-benzyl)-amino]-methyl}-phenyl)-difluoro-methyl]-phosphonic acid] was tested. Which IC50 did it give?
A: The IC50 was 100 to 249 nM.

Q: “3-{4-[({[4-(difluorophosphonomethyl)-3-chlorophenyl]methyl}[(2-methoxyphenyl)sulfonyl]amino)methyl]phenyl}-5-bromobenzoic acid [Compound 195]” was tested. Which IC50 did it give?
A: The IC50 was < 99 nM.

Q: For `CCCc1cc(-c2ccc(CN(Cc3ccc(C(F)(F)P(=O)(O)O)c(Cl)c3)S(=O)(=O)c3ccccc3OC)cc2)cc(C(=O)OC)c1O` [Compound 160, 4′-{[[3-Chloro-4-(difluoro-phosphono-methyl)-benzyl]-(2-methoxy-benzenesulfonyl)-amino]-methyl}-4-hydroxy-5-propyl-biphenyl-3-carboxylic acid methyl ester], which IC50 is on record?
A: The IC50 was 250 to 499 nM.

Q: How did the IC50 turn out when `O=P(O)(O)C(F)(F)c1ccc(CN(Cc2ccc(C(F)(F)P(=O)(O)O)cc2)c2ccccc2)cc1` [Compound 64, {[4-({[4-(Difluoro-phosphono-methyl)-benzyl]-phenyl-amino}-methyl)-phenyl]-difluoro-methyl}-phosphonic acid] was run?
A: Its IC50 is 2500 to 25000 nM.

Q: For “Methyl 2-(3-{4-[({[4-(difluorophosphonomethyl)-3-chlorophenyl]methyl}[(2-methoxyphenyl)sulfonyl]amino)methyl]phenyl}phenyl)acetate [Compound 191]”, which IC50 is on record?
A: Its IC50 is < 99 nM.

Q: For `O=P(O)(O)C(F)(F)c1ccc(CN(Cc2ccc(C(F)(F)P(=O)(O)O)cc2)C2CCCC2)cc1` [Compound 63, {[4-({Cyclopentyl-[4-(difluoro-phosphono-methyl)-benzyl]-amino}-methyl)-phenyl]-difluoro-methyl}-phosphonic acid], which IC50 is on record?
A: The IC50 was > 25000 nM.

Q: Which IC50 does the source give for `COc1ccccc1S(=O)(=O)N(Cc1ccc(C#N)cc1)Cc1ccc(NC(=O)C(=O)O)cc1` [Compound 129, N-(4-(N-oxalylamino]benzyl)-N-(4-cyanobenzyl)-(2-methoxy)benzenesulfonamide] here?
A: Its IC50 is > 25000 nM.

Q: `CC(=O)N(Cc1ccc(C(F)(F)P(=O)(O)O)cc1)Cc1ccc(C(F)(F)P(=O)(O)O)cc1` [Compound 59, {[4-({Acetyl-[4-(difluoro-phosphono-methyl)-benzyl]-amino}-methyl)-phenyl]-difluoro-methyl}-phosphonic acid] was tested. Which IC50 did it give?
A: Its IC50 is > 25000 nM.

Q: How did the IC50 turn out when “{[4-(difluorophosphonomethyl)-3-chlorophenyl]methyl}[(2-methoxyphenyl)sulfonyl](2-piperidylmethyl)amine [Compound 213]” was run?
A: The IC50 was 2500 to 25000 nM.

Q: How did the IC50 turn out when `COc1ccccc1S(=O)(=O)N(Cc1ccc(C(F)(F)P(=O)(O)O)c(Cl)c1)Cc1ccccc1-c1ccncc1` [Compound 180, [(2-Chloro-4-{[(2-methoxy-benzenesulfonyl)-(2-pyridin-4-yl-benzyl)-amino]-methyl}-phenyl)-difluoro-methyl]-phosphonic acid] was run?
A: Its IC50 is 100 to 249 nM.

Q: How did the IC50 turn out when `N#Cc1ccc(CN(Cc2ccc(C(F)(F)P(=O)(O)O)c(Br)c2)S(=O)(=O)c2ccccc2Cl)cc1` [Compound 103, [(2-Bromo-4-{[(4-cyano-benzyl)-(2-chlorobenzenesulfonyl)-amino]-methyl}-phenyl)-difluoro-methyl]-phosphonic acid] was run?
A: The IC50 was 100 to 249 nM.

Q: How did the IC50 turn out when `CCNc1ccc(S(=O)(=O)C(F)(F)F)cc1NC(=O)c1ccc(C)c(S(=O)(=O)N2CCCCC2)c1` [Compound 106, N-(2-Ethylamino-5-trifluoromethanesulfonyl-phenyl)-4-methyl-3-(piperidine-1-sulfonyl)-benzamide] was run?
A: Its IC50 is > 25000 nM.

Q: For `COc1ccccc1S(=O)(=O)N(Cc1ccc(C(F)(F)P(=O)(O)O)cc1)Cc1ccc(C(F)(F)P(=O)(O)O)cc1` [Compound 85, [(4-{[[4-(Difluoro-phosphono-methyl)-benzyl]-(2-methoxy-benzenesulfonyl)-amino]-methyl}-phenyl)-difluoro-methyl]-phosphonic acid], which IC50 is on record?
A: Its IC50 is 250 to 499 nM.

Q: How did the IC50 turn out when `O=C(O)c1ccc(CN(Cc2ccc(Cl)c(Cl)c2)S(=O)(=O)c2ccccc2Cl)cc1Br` [Compound 94, 2-Bromo-4-{[(2-chloro-benzenesulfonyl)-(3,4-dichloro-benzyl)-amino]-methyl}-benzoic acid] was run?
A: The IC50 was > 25000 nM.

Q: Which IC50 does the source give for `COc1ccccc1S(=O)(=O)N(Cc1ccc(C(F)(F)P(=O)(O)O)c(Br)c1)c1ccc(S(C)(=O)=O)cc1` [Compound 114, [(2-Bromo-4-{[(4-methanesulfonyl-phenyl)-(2-methoxy-benzenesulfonyl)-amino]-methyl}-phenyl)-difluoro-methyl]-phosphonic acid] here?
A: Its IC50 is 100 to 249 nM.

Q: For `O=P(O)(O)C(F)(F)c1ccc(CN(Cc2ccccc2)Cc2ccc(C(F)(F)P(=O)(O)O)cc2)cc1` [Compound 65, {[4-({Benzyl-[4-(difluoro-phosphono-methyl)-benzyl]-amino}-methyl)-phenyl]-difluoro-methyl}-phosphonic acid], which IC50 is on record?
A: Its IC50 is > 25000 nM.

Q: With “Methyl 3-{4-[({[4-(difluorophosphonomethyl)-3-chlorophenyl]methyl}[(2-methoxyphenyl)sulfonyl]amino)methyl]phenyl}-5-bromobenzoate [Compound 194]” as the compound, how does the IC50 read?
A: Its IC50 is 250 to 499 nM.

Q: Which IC50 does the source give for `COc1ccc(OC)c(S(=O)(=O)N(Cc2ccc(C(=O)C(=O)O)cc2)Cc2ccc(S(C)(=O)=O)cc2)c1` [Compound 113, (4-{[(2,5-Dimethoxy-benzenesulfonyl)-(4-methanesulfonyl-benzyl)-amino]-methyl}-phenyl)-oxo-acetic acid] here?
A: The IC50 was > 25000 nM.

Q: `COc1ccccc1S(=O)(=O)N(Cc1ccc(-c2cccc(C#N)c2)cc1)Cc1ccc(C(F)(F)P(=O)(O)OCOC(=O)C(C)(C)C)c(Cl)c1` [Compound 227, 2,2-Dimethyl-propionic acid [(2-chloro-4-{[(3′-cyano-biphenyl-4-ylmethyl)-(2-methoxy-benzenesulfonyl)-amino]-methyl}-phenyl)-difluoro-methyl]-hydroxy-phosphinoyloxymethyl ester] was tested. Which IC50 did it give?
A: Its IC50 is > 25000 nM.

Q: `O=P(O)(O)C(F)(F)c1ccc(CN(Cc2ccc(C(F)(F)P(=O)(O)O)cc2)S(=O)(=O)c2ccc(Oc3ccccc3)cc2)cc1` [Compound 70, [(4-{[[4-(Difluoro-phosphono-methyl)-benzyl]-(4-phenoxy-benzenesulfonyl)-amino]-methyl}-phenyl)-difluoro-methyl]-phosphonic acid] was tested. Which IC50 did it give?
A: Its IC50 is 250 to 499 nM.

Q: How did the IC50 turn out when `COc1cccc(-c2ccccc2CN(Cc2ccc(C(F)(F)P(=O)(O)O)c(Cl)c2)S(=O)(=O)c2ccccc2OC)c1` [Compound 183, [(2-Chloro-4-{[(2-methoxy-benzenesulfonyl)-(3′-methoxy-biphenyl-2-ylmethyl)-amino]-methyl}-phenyl)-difluoro-methyl]-phosphonic acid] was run?
A: The IC50 was < 99 nM.

Q: `COc1ccccc1S(=O)(=O)N(Cc1ccc(C#N)cc1)Cc1ccc(C(F)(F)P(=O)(O)O)c(Br)c1` [Compound 105, [(2-Bromo-4-{[(4-cyano-benzyl)-(2-methoxybenzenesulfonyl)-amino]-methyl}-phenyl)-difluoro-methyl]-phosphonic acid] was tested. Which IC50 did it give?
A: The IC50 was 100 to 249 nM.

Q: How did the IC50 turn out when `COc1ccccc1S(=O)(=O)N(Cc1ccc(C(O)C(=O)O)cc1)Cc1ccc(S(C)(=O)=O)cc1` (stereo not drawn) [Compound 127, Hydroxy-(4-{[(4-methanesulfonyl-benzyl)-(2-methoxy-benzenesulfonyl)-amino]-methyl}-phenyl)-acetic acid] was run?
A: The IC50 was > 25000 nM.

Q: With “{[4-(difluorophosphonomethyl)-3-chlorophenyl]methyl}(cycloheptylmethyl)[(2-methoxyphenyl)sulfonyl]amine [Compound 202]” as the compound, how does the IC50 read?
A: Its IC50 is 100 to 249 nM.

Q: With `COc1ccccc1S(=O)(=O)N(Cc1ccc(C#N)cc1)Cc1ccc(NS(=O)(=O)C(F)(F)F)c(C(=O)O)c1` [Compound 139, 5-{[(4-Cyano-benzyl)-(2-methoxy-benzenesulfonyl)-amino]-methyl}-2-trifluoromethanesulfonylamino-benzoic acid] as the compound, how does the IC50 read?
A: The IC50 was > 25000 nM.

Q: For `COc1ccccc1S(=O)(=O)N(Cc1ccc(-c2nn[nH]n2)cc1)Cc1ccc(-c2nn[nH]n2)cc1` [Compound 110, 2-Methoxy-N,N-bis-[4-(2H-tetrazol-5-yl)-benzyl]-benzenesulfonamide], which IC50 is on record?
A: The IC50 was > 25000 nM.

From US20060135773A1, “Trisubstituted nitrogen modulators of tyrosine phosphatases” (priority 2004, published 2006)
